From US9090568B2, “Quinazolinediones and their use” (IMPACT Therapeutics, Inc., priority 2011, dated 2015)
Where two headings read alike, the source gives them in different places.

How the values were obtained:
PARP-1 = target: T1, PARP-1 (Homo sapiens, UniProt P09874); experiment: PARP-1 activity assay (HT Universal chemiluminescent PARP Assay Kit); type: biochemical; settings: 0.5 unit/well PARP-1, 25° C., 45 minutes; read-out: PARP1 enzyme IC50
T1 construct: purchased Trevigen
Description: PARP-1 activity was determined using a HT Universal chemiluminescent PARP Assay Kit (Trevigen, Gaithersburg, Md., USA). The assay was to measure the incorporation of biotinylated poly(ADP-ribose) onto histone proteins catalyzed by PARP-1 upon activation with DNA. Experimental procedures were followed according to the instruction provided with the assay kit. In brief, PARP-1 (0.5 unit/well) was incubated with activated DNA and NAD^+ in reaction buffer in the presence or absence of test articles in histone-coated strip wells at 25° C. for 45 minutes. After incubation, the strip wells were incubated with Strep-HRP at 25° C. for 60 minutes after washes with PBS containing 0.1% Triton X-100. The chemiluminescence was measured with a Victor X5 2030 Multilabel Reader (Perkin Elmer) immediately after the addition of PeroxyGlow™ to the strip wells. IC50 value was calculated using median-effect method (Chou, T. C. (2006). Pharmacol. Rev. 58(3): 621-681).

MDA-MB-436 cells = experiment: Cell proliferation assay (MTS, 7 days); type: cell-based; settings: Homo sapiens
Description: Cell Proliferation Assay:
MDA-MB-436 cells were purchased from American Type Culture Collection (USA). Cells were maintained at 37° C. in a humidified atmosphere with 5% CO2. For proliferation test, MDA-MB-436 cells were seeded in 96-well plates at low density in RPMI-1640 medium supplemented with 10% FBS and incubated for 24 h at 37° C. in a humidified atmosphere with 5% CO2. Cells were further incubated in fresh medium in the presence or absence of the test articles at 37° C. for 7 days. The proliferation of cells was measured with a 3-(4,5-dimethylthiazol-2-yl)-5-(3-carboxymethoxyphenyl)-2-(4-sulfophenyl)-2H-tetrazolium (MTS) assay using a CellTiter 96® Aqueous Non-Radioactive Cell Proliferation kit (Promega). The absorbance at 490 nm (A490) was determined with a Victor X5 2030 Multilabel Reader (Perkin Elmer). IC50 value was calculated using median-effect method (Chou, T. C. (2006). Pharmacol. Rev. 58(3): 621-681).

[1] = Pharmacokinetic assay, intravenous and oral administration; type: in vivo, Sprague-Dawley rats; settings: after oral administrations in rats; for half-life: Sprague-Dawley, rat, plasma, read-out: t½
Description: The tested articles were given to Sprague-Dawley rats by intravenous and oral administration. Plasma samples were prepared from blood samples which were collected at various time points. The plasma concentrations of the tested articles were determined by specific LC-MS/MS analytical methods. Pharmacokinetic parameters were calculated with WinNonlin®.

[2] = 168 h, MDA-MB-436 cells, 7 days, MTS, read-out: MDA-MB-436 cells EC50

T1 sequence (P09874 whole entry): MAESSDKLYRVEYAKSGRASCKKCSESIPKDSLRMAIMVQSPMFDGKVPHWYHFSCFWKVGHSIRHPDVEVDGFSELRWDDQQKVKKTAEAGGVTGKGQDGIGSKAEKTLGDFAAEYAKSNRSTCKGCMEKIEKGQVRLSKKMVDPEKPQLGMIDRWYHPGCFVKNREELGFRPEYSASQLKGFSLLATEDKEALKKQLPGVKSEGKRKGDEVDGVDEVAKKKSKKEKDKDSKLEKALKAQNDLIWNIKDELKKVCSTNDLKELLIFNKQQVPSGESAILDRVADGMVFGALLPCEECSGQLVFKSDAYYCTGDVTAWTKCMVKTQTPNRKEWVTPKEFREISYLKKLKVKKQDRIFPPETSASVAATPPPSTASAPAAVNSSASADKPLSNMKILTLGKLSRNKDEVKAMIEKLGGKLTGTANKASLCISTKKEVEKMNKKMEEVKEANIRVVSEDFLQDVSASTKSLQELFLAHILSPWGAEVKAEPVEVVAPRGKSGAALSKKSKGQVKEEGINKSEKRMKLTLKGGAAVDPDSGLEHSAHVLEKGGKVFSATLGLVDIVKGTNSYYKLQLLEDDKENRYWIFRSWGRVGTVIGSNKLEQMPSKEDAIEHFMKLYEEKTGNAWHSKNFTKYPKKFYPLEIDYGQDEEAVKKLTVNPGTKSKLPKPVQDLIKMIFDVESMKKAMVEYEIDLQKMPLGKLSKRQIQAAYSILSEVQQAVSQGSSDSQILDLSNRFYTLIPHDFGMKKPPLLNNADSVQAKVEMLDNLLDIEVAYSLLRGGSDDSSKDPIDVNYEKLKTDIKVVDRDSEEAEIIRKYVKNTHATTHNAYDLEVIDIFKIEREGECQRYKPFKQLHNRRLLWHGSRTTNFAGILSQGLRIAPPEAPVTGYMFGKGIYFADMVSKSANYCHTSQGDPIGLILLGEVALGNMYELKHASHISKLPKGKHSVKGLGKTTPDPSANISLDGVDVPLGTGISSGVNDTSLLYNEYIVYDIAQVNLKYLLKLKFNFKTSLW

CC1(C(=O)N2CCN(C(=O)c3cc(Cn4c(=O)[nH]c(=O)c5ccccc54)ccc3F)CC2)CCCN1 (stereo in doubt) [Example 40, (R)-1-(4-fluoro-3-(4-(2-methylpyrrolidine-2-carbonyl)piperazine-1-carbonyl)benzyl)quinazoline-2,4(1H,3H)-dione]
IC50 (PARP-1): 0.1 to 10 nM
EC50 (MDA-MB-436 cells; [2]): > 0.01 µM

O=C(c1cc(Cn2c(=O)[nH]c(=O)c3ccccc32)ccc1F)N1CCN(C(=O)C2CC2)CC1 [Example 1]
IC50 (PARP-1): 0.1 to 10 nM
EC50 (MDA-MB-436 cells; MDA-MB-436, 168 h, read-out: MDA-MB-436 cells EC50 (μM)): > 0.01 µM

O=C(c1cccc(Cn2c(=O)[nH]c(=O)c3ccccc32)c1)N1CCN(C(=O)C2CC2)CC1 [Example 2]
IC50 (PARP-1): 0.1 to 10 nM
EC50 (MDA-MB-436 cells; [2]): 1 to 100 µM

O=C(c1cc(Cn2c(=O)[nH]c(=O)c3ccccc32)ccc1Cl)N1CCN(C(=O)C2CC2)CC1 [Example 3]
IC50 (PARP-1): 0.1 to 10 nM
EC50 (MDA-MB-436 cells; [2]): 1 to 100 µM

O=C(c1cc(Cn2c(=O)[nH]c(=O)c3ccccc32)ccc1F)N1CCCCC1 [Example 4]
IC50 (PARP-1): > 10 nM
EC50 (MDA-MB-436 cells; [2]): 1 to 100 µM

O=C(c1cc(Cn2c(=O)[nH]c(=O)c3ccccc32)ccc1F)N1CCC(OC(F)F)CC1 [Example 11]
IC50 (PARP-1): 0.1 to 10 nM
EC50 (MDA-MB-436 cells; [2]): 1 to 100 µM

O=C(c1cc(Cn2c(=O)[nH]c(=O)c3ccccc32)ccc1F)N1CCC(Oc2ccccn2)CC1 [Example 12]
IC50 (PARP-1): 0.1 to 10 nM
EC50 (MDA-MB-436 cells; [2]): 0.0001 to 0.01 µM

O=C(c1cc(Cn2c(=O)[nH]c(=O)c3ccccc32)ccc1F)N1CCC(n2cc(Br)cn2)CC1 [Example 14]
IC50 (PARP-1): 0.1 to 10 nM
EC50 (MDA-MB-436 cells; [2]): > 0.01 µM

O=C(c1cc(Cn2c(=O)[nH]c(=O)c3ccccc32)ccc1F)N1CCC(n2cccn2)CC1 [Example 15]
IC50 (PARP-1): 0.1 to 10 nM
EC50 (MDA-MB-436 cells; [2]): 1 to 100 µM

O=C(c1cc(Cn2c(=O)[nH]c(=O)c3ccccc32)ccc1F)N1CCC(N2CCCC2)CC1 [Example 17]
IC50 (PARP-1): 0.1 to 10 nM
EC50 (MDA-MB-436 cells; [2]): > 0.01 µM

COC(=O)C1CCN(C(=O)c2cc(Cn3c(=O)[nH]c(=O)c4ccccc43)ccc2F)CC1 [Example 18]
IC50 (PARP-1): 0.1 to 10 nM
EC50 (MDA-MB-436 cells; [2]): 1 to 100 µM

CCNC(=O)OC1CCN(C(=O)c2cc(Cn3c(=O)[nH]c(=O)c4ccccc43)ccc2F)CC1 [Example 19]
IC50 (PARP-1): > 10 nM
EC50 (MDA-MB-436 cells; [2]): 1 to 100 µM

O=C(O)C1CCN(C(=O)c2cc(Cn3c(=O)[nH]c(=O)c4ccccc43)ccc2F)CC1 [Example 20]
IC50 (PARP-1): > 10 nM

O=C(NC1CC1)C1CCN(C(=O)c2cc(Cn3c(=O)[nH]c(=O)c4ccccc43)ccc2F)CC1 [Example 21]
IC50 (PARP-1): > 10 nM
EC50 (MDA-MB-436 cells; [2]): 1 to 100 µM

O=C(c1cc(Cn2c(=O)[nH]c(=O)c3ccccc32)ccc1F)N1CCC(ON=C2CCc3ccccc32)CC1 [Example 22]
IC50 (PARP-1): > 10 nM

O=C(c1cc(Cn2c(=O)[nH]c(=O)c3ccccc32)ccc1F)N1Cc2cccc(F)c2C1 [Example 24]
IC50 (PARP-1): 0.1 to 10 nM
EC50 (MDA-MB-436 cells; [2]): > 0.01 µM

O=C(c1cc(Cn2c(=O)[nH]c(=O)c3ccccc32)ccc1F)N1Cc2cccnc2C1 [Example 25]
IC50 (PARP-1): 0.1 to 10 nM
half-life [1]: > 2 h
bioavailability (in words) [1]: bioavailable
EC50 (MDA-MB-436 cells; [2]): > 0.01 µM

O=C(c1cc(Cn2c(=O)[nH]c(=O)c3ccccc32)ccc1F)N1Cc2nccnc2C1 [Example 26]
IC50 (PARP-1): 0.1 to 10 nM
EC50 (MDA-MB-436 cells; [2]): > 0.01 µM

O=C(c1cc(Cn2c(=O)[nH]c(=O)c3ccccc32)ccc1F)N1CCN(c2ncccn2)CC1 [Example 28]
IC50 (PARP-1): 0.1 to 10 nM
EC50 (MDA-MB-436 cells; [2]): 0.0001 to 0.01 µM

O=C(c1cc(Cn2c(=O)[nH]c(=O)c3ccccc32)ccc1F)N1CC=C(c2ccc(F)cc2)CC1 [Example 29]
IC50 (PARP-1): 0.1 to 10 nM
EC50 (MDA-MB-436 cells; [2]): 1 to 100 µM

O=C(c1ccccn1)N1CCN(C(=O)c2cc(Cn3c(=O)[nH]c(=O)c4ccccc43)ccc2F)CC1 [Example 30]
IC50 (PARP-1): 0.1 to 10 nM
EC50 (MDA-MB-436 cells; [2]): > 0.01 µM

O=C(c1cc(Cn2c(=O)[nH]c(=O)c3ccccc32)ccc1F)N1CCNCC1 [Example 30b, 1-(4-fluoro-3-(piperazine-1-carbonyl)benzyl)quinazoline-2,4(1H,3H)-dione hydrochloric acid]
IC50 (PARP-1): 0.1 to 10 nM

O=C(c1ccno1)N1CCN(C(=O)c2cc(Cn3c(=O)[nH]c(=O)c4ccccc43)ccc2F)CC1 [Example 31]
IC50 (PARP-1): 0.1 to 10 nM
EC50 (MDA-MB-436 cells; [2]): > 0.01 µM

O=C(c1cnccn1)N1CCN(C(=O)c2cc(Cn3c(=O)[nH]c(=O)c4ccccc43)ccc2F)CC1 [Example 32]
IC50 (PARP-1): 0.1 to 10 nM
EC50 (MDA-MB-436 cells; [2]): > 0.01 µM

Cc1cnc(C(=O)N2CCN(C(=O)c3cc(Cn4c(=O)[nH]c(=O)c5ccccc54)ccc3F)CC2)cn1 [Example 33]
IC50 (PARP-1): 0.1 to 10 nM
EC50 (MDA-MB-436 cells; [2]): > 0.01 µM

O=C(c1cnco1)N1CCN(C(=O)c2cc(Cn3c(=O)[nH]c(=O)c4ccccc43)ccc2F)CC1 [Example 34]
IC50 (PARP-1): 0.1 to 10 nM
EC50 (MDA-MB-436 cells; [2]): > 0.01 µM

Cc1cc(C(=O)N2CCN(C(=O)c3cc(Cn4c(=O)[nH]c(=O)c5ccccc54)ccc3F)CC2)no1 [Example 35]
IC50 (PARP-1): 0.1 to 10 nM
EC50 (MDA-MB-436 cells; [2]): > 0.01 µM

Cc1cc(C(=O)N2CCN(C(=O)c3cc(Cn4c(=O)[nH]c(=O)c5ccccc54)ccc3F)CC2)on1 [Example 36]
IC50 (PARP-1): 0.1 to 10 nM
EC50 (MDA-MB-436 cells; [2]): > 0.01 µM

Cc1nc(C)c(C(=O)N2CCN(C(=O)c3cc(Cn4c(=O)[nH]c(=O)c5ccccc54)ccc3F)CC2)o1 [Example 37]
IC50 (PARP-1): 0.1 to 10 nM
EC50 (MDA-MB-436 cells; [2]): > 0.01 µM

O=C(c1cc(Cn2c(=O)[nH]c(=O)c3ccccc32)ccc1F)N1CCN(C(=O)C2CCCO2)CC1 (stereo not shown) [Example 38]
IC50 (PARP-1): 0.1 to 10 nM
half-life [1]: > 2 h
bioavailability (in words) [1]: bioavailable
EC50 (MDA-MB-436 cells; [2]): > 0.01 µM

CC1(C(=O)N2CCN(C(=O)c3cc(Cn4c(=O)[nH]c(=O)c5ccccc54)ccc3F)CC2)CCCO1 (stereo not shown) [Example 39]
IC50 (PARP-1): 0.1 to 10 nM
EC50 (MDA-MB-436 cells; [2]): > 0.01 µM

CCOC(=O)N1CCN(C(=O)c2cc(Cn3c(=O)[nH]c(=O)c4ccccc43)ccc2F)CC1 [Example 41]
IC50 (PARP-1): 0.1 to 10 nM
EC50 (MDA-MB-436 cells; [2]): > 0.01 µM

O=C(OC1CCCC1)N1CCN(C(=O)c2cc(Cn3c(=O)[nH]c(=O)c4ccccc43)ccc2F)CC1 [Example 42]
IC50 (PARP-1): 0.1 to 10 nM
EC50 (MDA-MB-436 cells; [2]): > 0.01 µM
